Measured values published in PubChem BioAssay AID256 (DTP/NCI, 2004).
Where “and” joins values, the source holds several entries; their conditions need not be identical. Identical values can stand only once. Inconclusive results and toxic doses are left out.

System: CD2F1 mice, L1210 leukemia ip, survival T/C
Assay: NCI In Vivo Anticancer Drug Screen. Data for tumor model L1210 Leukemia (intraperitoneal) in CD2F1 (CDF1) mice
Details: higher = longer survival
Procedure, shortened: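 Tumor-bearing mice (transplanted tumor) were split into treated and vehicle control groups, and the measured endpoint of each treated group was divided by that of its vehicle controls.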

[1] = endpoint: mean survival time, dose: 100.0 mg/kg/injection, schedule: Q01DX009 (ip), vehicle: saline with Tween-80
[2] = endpoint: mean survival time, dose: 200.0 mg/kg/injection, schedule: Q01DX009 (ip), vehicle: saline with Tween-80
[3] = endpoint: mean survival time, dose: 100.0 mg/kg/injection, schedule: Q01DX001 (ip), vehicle: saline
[4] = endpoint: mean survival time, dose: 200.0 mg/kg/injection, schedule: Q01DX001 (ip), vehicle: saline
[5] = endpoint: mean survival time, dose: 400.0 mg/kg/injection, schedule: Q01DX001 (ip), vehicle: saline
[6] = endpoint: mean survival time, dose: 100.0 mg/kg/injection, schedule: Q04DX003 (ip), vehicle: saline
[7] = endpoint: mean survival time, dose: 100.0 mg/kg/injection, schedule: Q04DX003 (ip), vehicle: saline with Tween-80
[8] = endpoint: mean survival time, dose: 200.0 mg/kg/injection, schedule: Q04DX003 (ip), vehicle: saline with Tween-80
[9] = endpoint: mean survival time, dose: 400.0 mg/kg/injection, schedule: Q04DX003 (ip), vehicle: saline with Tween-80

O=C(O)CCC(=O)O
T/C (endpoint: mean survival time, dose: 10.0 mg/kg/injection, schedule: Q01DX009 (ip), vehicle: saline): 104 % of control | T/C (endpoint: mean survival time, dose: 10.0 mg/kg/injection, schedule: Q01DX009 (ip), vehicle: water): 95 % of control and 98 % of control | T/C (endpoint: mean survival time, dose: 20.0 mg/kg/injection, schedule: Q01DX001 (ip), vehicle: saline): 104 % of control | T/C (endpoint: mean survival time, dose: 20.0 mg/kg/injection, schedule: Q01DX001 (ip), vehicle: water): 95 % of control and 98 % of control | T/C (endpoint: mean survival time, dose: 20.0 mg/kg/injection, schedule: Q01DX009 (ip), vehicle: saline): 97 % of control | T/C (endpoint: mean survival time, dose: 20.0 mg/kg/injection, schedule: Q01DX009 (ip), vehicle: water): 101 % of control and 98 % of control | T/C (endpoint: mean survival time, dose: 20.0 mg/kg/injection, schedule: Q04DX003 (ip), vehicle: saline): 96 % of control | T/C (endpoint: mean survival time, dose: 20.0 mg/kg/injection, schedule: Q04DX003 (ip), vehicle: water): 98 % of control | T/C (endpoint: mean survival time, dose: 40.0 mg/kg/injection, schedule: Q01DX001 (ip), vehicle: saline): 104 % of control | T/C (endpoint: mean survival time, dose: 40.0 mg/kg/injection, schedule: Q01DX001 (ip), vehicle: water): 103 % of control and 101 % of control | T/C (endpoint: mean survival time, dose: 40.0 mg/kg/injection, schedule: Q01DX009 (ip), vehicle: saline): 104 % of control | T/C (endpoint: mean survival time, dose: 40.0 mg/kg/injection, schedule: Q01DX009 (ip), vehicle: water): 97 % of control and 95 % of control | T/C (endpoint: mean survival time, dose: 40.0 mg/kg/injection, schedule: Q04DX003 (ip), vehicle: saline): 102 % of control | T/C (endpoint: mean survival time, dose: 40.0 mg/kg/injection, schedule: Q04DX003 (ip), vehicle: water): 96 % of control | T/C (endpoint: mean survival time, dose: 80.0 mg/kg/injection, schedule: Q01DX001 (ip), vehicle: saline): 103 % of control | T/C (endpoint: mean survival time, dose: 80.0 mg/kg/injection, schedule: Q01DX001 (ip), vehicle: water): 97 % of control | T/C (endpoint: mean survival time, dose: 80.0 mg/kg/injection, schedule: Q01DX009 (ip), vehicle: saline): 104 % of control | T/C (endpoint: mean survival time, dose: 80.0 mg/kg/injection, schedule: Q01DX009 (ip), vehicle: water): 95 % of control and 97 % of control | T/C (endpoint: mean survival time, dose: 80.0 mg/kg/injection, schedule: Q04DX003 (ip), vehicle: saline): 98 % of control | T/C (endpoint: mean survival time, dose: 80.0 mg/kg/injection, schedule: Q04DX003 (ip), vehicle: water): 91 % of control and 96 % of control | T/C (endpoint: mean survival time, dose: 160.0 mg/kg/injection, schedule: Q01DX001 (ip), vehicle: saline): 101 % of control | T/C (endpoint: mean survival time, dose: 160.0 mg/kg/injection, schedule: Q01DX001 (ip), vehicle: water): 98 % of control and 93 % of control | T/C (endpoint: mean survival time, dose: 160.0 mg/kg/injection, schedule: Q01DX009 (ip), vehicle: saline): 98 % of control | T/C (endpoint: mean survival time, dose: 160.0 mg/kg/injection, schedule: Q01DX009 (ip), vehicle: water): 98 % of control and 90 % of control | T/C (endpoint: mean survival time, dose: 160.0 mg/kg/injection, schedule: Q04DX003 (ip), vehicle: saline): 101 % of control | T/C (endpoint: mean survival time, dose: 160.0 mg/kg/injection, schedule: Q04DX003 (ip), vehicle: water): 98 % of control and 93 % of control | T/C (endpoint: mean survival time, dose: 320.0 mg/kg/injection, schedule: Q01DX001 (ip), vehicle: saline): 106 % of control | T/C (endpoint: mean survival time, dose: 320.0 mg/kg/injection, schedule: Q01DX001 (ip), vehicle: water): 101 % of control | T/C (endpoint: mean survival time, dose: 320.0 mg/kg/injection, schedule: Q04DX003 (ip), vehicle: saline): 98 % of control | T/C (endpoint: mean survival time, dose: 320.0 mg/kg/injection, schedule: Q04DX003 (ip), vehicle: water): 87 % of control and 98 % of control | T/C (endpoint: mean survival time, dose: 640.0 mg/kg/injection, schedule: Q01DX001 (ip), vehicle: saline): 103 % of control | T/C (endpoint: mean survival time, dose: 640.0 mg/kg/injection, schedule: Q01DX001 (ip), vehicle: water): 101 % of control

NCC(Cl)c1ccccc1 (stereo unspecified)
T/C [1]: 97 % of control | T/C [2]: 95 % of control

C[NH-].[Cl][Pt+2][Cl].[NH-]C1CC1
T/C (endpoint: mean survival time, dose: 1.56 mg/kg/injection, schedule: Q04DX003 (ip), vehicle: saline): 103 % of control | T/C (endpoint: mean survival time, dose: 3.12 mg/kg/injection, schedule: Q04DX003 (ip), vehicle: saline with Tween-80): 113 % of control | T/C (endpoint: mean survival time, dose: 3.12 mg/kg/injection, schedule: Q04DX003 (ip), vehicle: saline): 103 % of control | T/C (endpoint: mean survival time, dose: 6.25 mg/kg/injection, schedule: Q04DX003 (ip), vehicle: saline): 120 % of control | T/C (endpoint: mean survival time, dose: 12.5 mg/kg/injection, schedule: Q04DX003 (ip), vehicle: saline with Tween-80): 104 % of control

CCC12CC(Br)C(C1)OC2=O (stereo unspecified)
T/C (endpoint: mean survival time, dose: 100.0 mg/kg/injection, schedule: Q01DX009 (ip), vehicle: other): 96 % of control | T/C (endpoint: mean survival time, dose: 200.0 mg/kg/injection, schedule: Q01DX009 (ip), vehicle: other): 101 % of control | T/C (endpoint: mean survival time, dose: 400.0 mg/kg/injection, schedule: Q01DX009 (ip), vehicle: other): 100 % of control

Fc1ccccc1OCC1CO1 (stereo unspecified)
T/C [3]: 114 % of control | T/C [4]: 110 % of control | T/C [5]: 108 % of control

CC1=C2CCCCC2(C)CCC1=O (stereo unspecified)
T/C (endpoint: mean survival time, dose: 100.0 mg/kg/injection, schedule: Q04DX002 (ip), vehicle: saline with Tween-80): 120 % of control | T/C (endpoint: mean survival time, dose: 200.0 mg/kg/injection, schedule: Q04DX002 (ip), vehicle: saline with Tween-80): 108 % of control | T/C (endpoint: mean survival time, dose: 400.0 mg/kg/injection, schedule: Q04DX002 (ip), vehicle: saline with Tween-80): 100 % of control

O=C(O)CCn1cccc1
T/C (endpoint: mean survival time, dose: 100.0 mg/kg/injection, schedule: Q01DX001 (ip), vehicle: saline with Tween-80): 91 % of control | T/C (endpoint: mean survival time, dose: 200.0 mg/kg/injection, schedule: Q01DX001 (ip), vehicle: saline with Tween-80): 89 % of control

OC[C@@H]1CCCN2CCCC[C@H]12
T/C (endpoint: mean survival time, dose: 25.0 mg/kg/injection, schedule: Q04DX003 (ip), vehicle: saline): 100 % of control | T/C (endpoint: mean survival time, dose: 50.0 mg/kg/injection, schedule: Q04DX003 (ip), vehicle: saline): 107 % of control | T/C [6]: 105 % of control

O=P(NCCCl)(NCCCl)Oc1ccccc1
T/C (endpoint: mean survival time, dose: 62.5 mg/kg/injection, schedule: Q01DX001 (ip), vehicle: water): 103 % of control | T/C (endpoint: mean survival time, dose: 125.0 mg/kg/injection, schedule: Q01DX001 (ip), vehicle: water): 97 % of control | T/C (endpoint: mean survival time, dose: 250.0 mg/kg/injection, schedule: Q01DX001 (ip), vehicle: water): 98 % of control | T/C (endpoint: mean survival time, dose: 500.0 mg/kg/injection, schedule: Q01DX001 (ip), vehicle: water): 98 % of control

Cc1ncc2c(n1)NC(c1ccc(Cl)cc1Cl)NC2 (stereo unspecified)
T/C (endpoint: mean survival time, dose: 75.0 mg/kg/injection, schedule: Q01DX001 (ip), vehicle: saline): 101 % of control | T/C (endpoint: mean survival time, dose: 150.0 mg/kg/injection, schedule: Q01DX001 (ip), vehicle: saline): 105 % of control | T/C (endpoint: mean survival time, dose: 300.0 mg/kg/injection, schedule: Q01DX001 (ip), vehicle: saline): 101 % of control

COc1ccc(/C=C2/CCOC2=O)cc1
T/C (endpoint: mean survival time, dose: 3.12 mg/kg/injection, schedule: Q01DX001 (ip), vehicle: Klucel (hydroxypropylcellulose) (HPC)): 104 % of control | T/C (endpoint: mean survival time, dose: 3.12 mg/kg/injection, schedule: Q04DX002 (ip), vehicle: Klucel (hydroxypropylcellulose) (HPC)): 103 % of control | T/C (endpoint: mean survival time, dose: 6.25 mg/kg/injection, schedule: Q01DX001 (ip), vehicle: Klucel (hydroxypropylcellulose) (HPC)): 102 % of control | T/C (endpoint: mean survival time, dose: 6.25 mg/kg/injection, schedule: Q04DX002 (ip), vehicle: Klucel (hydroxypropylcellulose) (HPC)): 100 % of control | T/C (endpoint: mean survival time, dose: 12.5 mg/kg/injection, schedule: Q01DX001 (ip), vehicle: Klucel (hydroxypropylcellulose) (HPC)): 116 % of control | T/C (endpoint: mean survival time, dose: 12.5 mg/kg/injection, schedule: Q04DX002 (ip), vehicle: Klucel (hydroxypropylcellulose) (HPC)): 107 % of control

CCCCCCCCCCCCCCCCOc1ccccc1CNc1cc(Cl)ccc1Cl
T/C [1]: 102 % of control | T/C [7]: 95 % of control | T/C [2]: 96 % of control | T/C [8]: 95 % of control | T/C (endpoint: mean survival time, dose: 400.0 mg/kg/injection, schedule: Q01DX009 (ip), vehicle: saline with Tween-80): 93 % of control | T/C [9]: 89 % of control

O=CC(CO)CC(C=O)n1cnc2c(=O)[nH]cnc21 (stereo unspecified)
T/C (endpoint: mean survival time, dose: 60.0 mg/kg/injection, schedule: Q01DX009 (ip), vehicle: saline): 123 % of control | T/C (endpoint: mean survival time, dose: 89.0 mg/kg/injection, schedule: Q01DX009 (ip), vehicle: saline): 116 % of control | T/C (endpoint: mean survival time, dose: 300.0 mg/kg/injection, schedule: Q01DX009 (ip), vehicle: saline): 159 % of control | T/C (endpoint: mean survival time, dose: 300.0 mg/kg/injection, schedule: Q04DX003 (ip), vehicle: saline): 150 % of control | T/C (endpoint: median survival time, dose: 37.5 mg/kg/injection, schedule: Q01DX009 (ip), vehicle: saline): 113 % of control and 124 % of control

Nc1ccc(Cl)cc1C(=O)c1ccc[nH]1
T/C [3]: 101 % of control | T/C [6]: 94 % of control | T/C [4]: 98 % of control | T/C (endpoint: mean survival time, dose: 200.0 mg/kg/injection, schedule: Q04DX003 (ip), vehicle: saline): 94 % of control | T/C [5]: 93 % of control | T/C (endpoint: mean survival time, dose: 400.0 mg/kg/injection, schedule: Q04DX003 (ip), vehicle: saline): 94 % of control

COC(=O)C1CC2C(CCC3C(C)(C(=O)OC)CCCC23C)C(=O)C1(O)C(C)C (stereo unspecified)
T/C [7]: 101 % of control | T/C [8]: 105 % of control | T/C [9]: 91 % of control
